Assays:
[1] = biological target: T1, mouse TAAR3 (Mus musculus, UniProt Q5QD16); assay: TAAR3 CRE-SEAP reporter gene assay in transfected HEK293 cells; format: cell-based
T1 construct: Full Taar coding regions were cloned into pcDNA3.1-(Invitrogen); expressed in transfected cells; host or cells: HEK293
T1 sequence (Q5QD16 1-343): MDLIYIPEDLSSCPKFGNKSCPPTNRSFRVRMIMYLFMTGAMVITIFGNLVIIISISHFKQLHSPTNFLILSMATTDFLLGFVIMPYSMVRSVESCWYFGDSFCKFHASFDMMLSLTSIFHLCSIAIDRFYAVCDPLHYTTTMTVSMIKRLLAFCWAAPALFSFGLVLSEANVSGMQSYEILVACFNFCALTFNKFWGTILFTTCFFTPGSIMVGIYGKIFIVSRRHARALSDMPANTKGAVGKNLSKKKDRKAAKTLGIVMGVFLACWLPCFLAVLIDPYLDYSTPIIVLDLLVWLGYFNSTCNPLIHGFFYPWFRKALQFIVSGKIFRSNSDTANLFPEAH
Description: Reporter gene assays were performed on HEK293 cells transfected with mouse TAAR3 and CRE-SEAP.
TAAR functional assays. Reporter gene assays were performed as described (Liberles S D & Buck LB (2006) A second class of chemosensory receptors in the olfactory epithelium. Nature 442(7103):645-650) with the following minor modifications. Test urines were diluted in serum-free media containing penicillin G (100 Units/ml, Invitrogen) and streptomycin sulfate ([…], Invitrogen). SEAP activity is measured as fluorescence resulting from dephosphorylation of a substrate, 4-methylumbelliferyl phosphate. Fluorescence values were obtained using an EnVision plate reader (Perkin Elmer) and are reported directly without normalization. All TAARs, except mouse TAAR3, were expressed as fusion proteins with an N-terminal sequence of bovine rhodopsin (Krautwurst D, Yau K W, & Reed R R (1998) Identification of ligands for olfactory receptors by functional expression of a receptor library. Cell 95(7):917-926).

[2] = biological target: T2, rTAAR7b (Rattus norvegicus, UniProt Q923X8); assay: CRE-SEAP reporter gene assay in HEK293 cells transfected with rTAAR7b; format: cell-based; set-up: Full Taar coding regions were cloned into pcDNA3.1; expressed in transfected cells; host or cells: HEK293; settings: FIG. 11A, rTAAR7b did not work with a 'Rho tag' (unmodified form), EC50 ± s.e.m., 4-parameter Hill equation
T2 sequence (Q923X8 1-358): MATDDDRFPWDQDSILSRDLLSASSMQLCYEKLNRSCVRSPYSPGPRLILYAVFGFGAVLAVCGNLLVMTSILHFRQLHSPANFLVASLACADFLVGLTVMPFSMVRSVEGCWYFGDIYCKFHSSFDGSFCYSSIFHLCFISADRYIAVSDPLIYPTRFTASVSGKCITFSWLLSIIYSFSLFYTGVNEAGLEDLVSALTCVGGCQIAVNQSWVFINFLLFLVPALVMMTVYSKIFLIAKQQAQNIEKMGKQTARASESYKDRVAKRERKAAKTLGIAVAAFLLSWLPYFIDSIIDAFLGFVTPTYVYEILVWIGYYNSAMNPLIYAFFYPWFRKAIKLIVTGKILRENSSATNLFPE
Description: FIG. 11 illustrates the dose-dependent responses of TAARs to amines. HEK293 cells were cotransfected with plasmids encoding CRE-SEAP and rTAARs (a) or mTAARs (b), incubated with concentrations of ligands indicated, and assayed for reporter activity (triplicates±s.d.). EC50 values (±s.e.m, bottom right) were calculated using SigmaPlot (Systat Software) and a 4-parameter Hill equation.
The following mixes (10 μM of each indicated compounds) were tested for their ability to activate rat TAARs. Mix 1: butylamine, dibutylamine, hexylamine. Mix 2: 2-aminopentane, isoamylamine, isobutylamine, isopropylamine. Mix 3: N,N-dimethylcyclohexylamine, 1-methylindole, tryptamine, phenylethylamine. Mix 4: indole, 1-methylpyrrolidine, 1-methylpiperidine, pyrrolidine. […]
Full Taar coding regions were cloned into pcDNA3.1-(Invitrogen) with or without a 5′ DNA extension of 69 bp encoding the first 20 amino acids of bovine rhodopsin followed by a cloning linker ([…]). […] Fluorescence was measured on an EnVision plate reader (Perkin Elmer) and SEAP activity graphed as relative fluorescence of a phosphatase substrate.
Here, we set out to identify agonists for additional mouse and rat TAARs. […] Transfected cells were incubated with test chemicals, and phosphatase activity was quantified with a fluorescent substrate as a reporter for TAAR activation. […]

SMILES	EC50 [1] [µM]	reduced sensitivity of TAAR3 compared to TAAR4 ([1]; TAAR3 vs TAAR4) [fold]	EC50 [2] [µM]
NCCc1ccccc1 [2-phenylethylamine]	~100	30	–
CN(C)C1CCCCC1 [N,N-DIMETHYLCYCLOHEXYLAMINE, N,N-dimethylcyclohexylamine]	–	–	33.2 ± 12.8

Reference: patent publication US20140221499A1, “NOVEL RODENT CONTROL AGENTS AND USES THEREOF” (priority 2011, published 2014)
